Results taken from patent publication US11969428B2, “Methods and pharmaceutical compositions for treating lymphoid malignancy” (priority 2011, dated 2024).

Tests used:
Assay in all cases: Ambit KinomeScan screening
Format in all cases: binding
Conditions in all cases: CAL-130 10 μM
[1] = molecular target: T1, ROS1 (Homo sapiens, UniProt P08922)
T1 construct: unspecified tag (tagged kinase); purchased Ambit (KinomeScan screening)
In short: (§1)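 CAL-130 was tested at 10 μM for its ability to block tagged kinases from binding an immobilized bait ligand across a 353-kinase panel. Values are expressed as percent of control binding, with lower numbers meaning stronger interaction and values above 35% classed as no hit.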

[2] = molecular target: T2, TAO1 (Homo sapiens, UniProt Q9UL54)
T2 construct: tag (kind not specified); purchased Ambit (KinomeScan screening service)
In short: as §1

[3] = molecular target: T3, ULK3 (Homo sapiens, UniProt Q6PHR2)
T3 construct: tag, kind not specified; purchased Ambit (KinomeScan screening service)
In short: as §1

[4] = molecular target: T4, TTK (Homo sapiens, UniProt P33981)
T4 construct: tag, kind not specified; purchased Ambit (KinomeScan screening service)
In short: as §1

[5] = molecular target: T5, EGFR(L747-S752DEL, P753S) (Homo sapiens, UniProt P00533, DEL747-752/P753S)
T5 construct: unspecified tag; purchased Ambit (KinomeScan screening service)
In short: as §1

[6] = molecular target: T6, FGFR3(G697C) (Homo sapiens, UniProt P22607, G697C)
T6 construct: unspecified tag; purchased Ambit (KinomeScan screening service)
In short: as §1

[7] = molecular target: T7, RPS6KA1 (Homo sapiens, UniProt Q15418)
T7 construct: unspecified tag (tagged kinase); purchased Ambit (KinomeScan screening)
In short: as §1

[8] = molecular target: T8, PHKG1 (Homo sapiens, UniProt Q16816)
T8 construct: unspecified tag ('tagged kinases'); purchased Ambit (KinomeScan screening)
In short: as §1

[9] = molecular target: T9, PCTK1 (Homo sapiens, UniProt Q00536)
T9 construct: unspecified tag ('tagged kinases'); purchased Ambit (KinomeScan screening)
In short: as §1

[10] = molecular target: T10, MINK (Homo sapiens, UniProt Q8N4C8)
T10 construct: unspecified tag ('tagged kinases'); purchased Ambit (KinomeScan screening)
In short: as §1

[11] = molecular target: T11, MEK1 (Homo sapiens, UniProt Q02750)
T11 construct: purchased Ambit (KinomeScan screening)
In short: as §1

[12] = molecular target: T12, EGFR (Homo sapiens, UniProt P00533)
T12 construct: unspecified tag; purchased Ambit (KinomeScan screening service)
In short: as §1

[13] = molecular target: T13, SNARK (Homo sapiens, UniProt Q9H093)
T13 construct: tag, kind not specified; purchased Ambit (KinomeScan screening service)
In short: as §1

[14] = molecular target: T14, ULK1 (Homo sapiens, UniProt O75385)
T14 construct: tag, kind not specified; purchased Ambit (KinomeScan screening service)
In short: as §1

[15] = molecular target: T15, PDGFRA (Homo sapiens, UniProt P16234)
T15 construct: unspecified tag ('tagged kinases'); purchased Ambit (KinomeScan screening)
In short: as §1

[16] = molecular target: T16, ABL2 (Homo sapiens, UniProt P42684)
T16 construct: unspecified tag ("tagged kinases"); purchased Ambit (KinomeScan screening)
In short: as §1

[17] = molecular target: T17, PRKX (Homo sapiens, UniProt P51817)
T17 construct: tag (kind not specified); purchased Ambit (KinomeScan screening service)
In short: as §1

[18] = molecular target: T18, IKK-β (Homo sapiens, UniProt O14920)
T18 construct: Ambit (KinomeScan screening)
In short: as §1

[19] = molecular target: T19, AURKB (Homo sapiens, UniProt Q96GD4)
T19 construct: purchased Ambit (KinomeScan screening service)
In short: as §1

[20] = molecular target: T20, IGF1R (Homo sapiens, UniProt P08069)
T20 construct: Ambit (KinomeScan screening)
In short: as §1

[21] = molecular target: T21, PKMYT1 (Homo sapiens, UniProt Q99640)
T21 construct: purchased Ambit (KinomeScan screening service)
In short: as §1

[22] = molecular target: T22, TNNI3K (Homo sapiens, UniProt Q59H18)
T22 construct: unspecified tag (tagged kinase); purchased Ambit (KinomeScan screening)
In short: as §1

[23] = molecular target: T23, TAOK3 (Homo sapiens, UniProt Q9H2K8)
T23 construct: tag (kind not specified); purchased Ambit (KinomeScan screening service)
In short: as §1

[24] = molecular target: T24, ULK2 (Homo sapiens, UniProt Q8IYT8)
T24 construct: tag, kind not specified; purchased Ambit (KinomeScan screening service)
In short: as §1

[25] = molecular target: T25, LATS1 (Homo sapiens, UniProt O95835)
T25 construct: unspecified tag ('tagged kinases'); purchased Ambit (KinomeScan screening service)
In short: as §1

[26] = molecular target: T26, AURKA (Homo sapiens, UniProt O14965)
T26 construct: purchased Ambit (KinomeScan screening service)
In short: as §1

[27] = molecular target: T27, FLT3 (Homo sapiens, UniProt P36888)
T27 construct: unspecified tag; purchased Ambit (KinomeScan screening service)
In short: as §1

[28] = molecular target: T28, EGFR(E746-A750DEL) (Homo sapiens, UniProt P00533, DEL746-750)
T28 construct: unspecified tag; purchased Ambit (KinomeScan screening service)
In short: as §1

[29] = molecular target: T29, EPHB1 (Homo sapiens, UniProt P54762)
T29 construct: purchased Ambit (KinomeScan screening service)
In short: as §1

[30] = molecular target: T30, PLK2 (Homo sapiens, UniProt Q9NYY3)
T30 construct: purchased Ambit (KinomeScan screening service)
In short: as §1

[31] = molecular target: T31, BRAF(V600E) (Homo sapiens, UniProt P15056, V600E)
T31 construct: unspecified tag ("tagged kinases"); purchased Ambit (KinomeScan screening)
In short: as §1

[32] = molecular target: T32, BMPR1B (Homo sapiens, UniProt O00238)
T32 construct: purchased Ambit (KinomeScan screening service)
In short: as §1

[33] = molecular target: T33, CSNK2A1 (Homo sapiens, UniProt P68400)
T33 construct: purchased Ambit (KinomeScan screening service)
In short: as §1

[34] = molecular target: T34, DRAK2 (Homo sapiens, UniProt O94768)
T34 construct: unspecified tag ("tagged kinases"); purchased Ambit (KinomeScan screening service)
In short: as §1

[35] = molecular target: T35, MUSK (Homo sapiens, UniProt O15146)
T35 construct: unspecified tag; purchased Ambit (KinomeScan screening panel)
In short: as §1

[36] = molecular target: T36, SRC (Homo sapiens, UniProt P12931)
T36 construct: tag, kind not specified; purchased Ambit (KinomeScan screening service)
In short: as §1

Measured: Percent of Control Binding

T25 sequence (O95835 whole entry): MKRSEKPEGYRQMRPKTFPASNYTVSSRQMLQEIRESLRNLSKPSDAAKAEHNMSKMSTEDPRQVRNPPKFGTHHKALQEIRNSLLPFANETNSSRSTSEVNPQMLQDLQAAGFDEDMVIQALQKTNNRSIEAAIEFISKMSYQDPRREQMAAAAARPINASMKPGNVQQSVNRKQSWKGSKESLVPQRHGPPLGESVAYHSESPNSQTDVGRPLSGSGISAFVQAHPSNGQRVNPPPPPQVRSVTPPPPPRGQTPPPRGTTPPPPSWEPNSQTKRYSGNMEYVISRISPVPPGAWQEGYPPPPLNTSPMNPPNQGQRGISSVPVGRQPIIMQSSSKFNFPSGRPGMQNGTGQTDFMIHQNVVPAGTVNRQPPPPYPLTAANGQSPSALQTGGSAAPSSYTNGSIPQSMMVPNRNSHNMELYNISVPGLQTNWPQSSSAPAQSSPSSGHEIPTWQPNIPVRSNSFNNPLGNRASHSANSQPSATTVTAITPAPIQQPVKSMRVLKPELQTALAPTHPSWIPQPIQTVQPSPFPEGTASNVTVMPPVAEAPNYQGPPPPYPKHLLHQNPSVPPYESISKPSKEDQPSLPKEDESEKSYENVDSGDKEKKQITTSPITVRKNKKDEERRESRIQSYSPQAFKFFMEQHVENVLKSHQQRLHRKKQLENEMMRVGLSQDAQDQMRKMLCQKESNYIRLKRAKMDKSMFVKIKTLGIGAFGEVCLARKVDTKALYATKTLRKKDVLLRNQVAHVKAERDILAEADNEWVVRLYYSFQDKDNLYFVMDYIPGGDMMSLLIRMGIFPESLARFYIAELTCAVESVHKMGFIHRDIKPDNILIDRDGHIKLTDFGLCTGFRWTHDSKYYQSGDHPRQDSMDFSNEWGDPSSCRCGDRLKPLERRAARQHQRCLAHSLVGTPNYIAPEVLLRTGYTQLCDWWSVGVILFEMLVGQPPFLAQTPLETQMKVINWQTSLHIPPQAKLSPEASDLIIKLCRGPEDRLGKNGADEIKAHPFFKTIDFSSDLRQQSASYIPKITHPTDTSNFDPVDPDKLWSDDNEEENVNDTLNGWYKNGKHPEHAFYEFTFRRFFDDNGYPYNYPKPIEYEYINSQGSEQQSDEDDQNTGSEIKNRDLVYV
T32 sequence (O00238 14-502): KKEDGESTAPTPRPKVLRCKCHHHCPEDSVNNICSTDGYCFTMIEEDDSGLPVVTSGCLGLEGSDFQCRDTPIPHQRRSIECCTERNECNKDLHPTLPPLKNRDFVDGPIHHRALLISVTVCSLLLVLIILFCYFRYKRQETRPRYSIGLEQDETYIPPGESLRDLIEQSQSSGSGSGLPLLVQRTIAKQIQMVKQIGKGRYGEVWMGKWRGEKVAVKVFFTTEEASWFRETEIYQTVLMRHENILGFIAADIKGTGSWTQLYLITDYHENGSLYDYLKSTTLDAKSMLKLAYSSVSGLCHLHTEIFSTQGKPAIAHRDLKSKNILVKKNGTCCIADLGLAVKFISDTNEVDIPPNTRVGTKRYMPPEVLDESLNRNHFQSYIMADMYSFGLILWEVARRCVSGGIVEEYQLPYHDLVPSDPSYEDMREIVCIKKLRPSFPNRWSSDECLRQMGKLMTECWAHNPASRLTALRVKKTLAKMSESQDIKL
T18 sequence (O14920 whole entry): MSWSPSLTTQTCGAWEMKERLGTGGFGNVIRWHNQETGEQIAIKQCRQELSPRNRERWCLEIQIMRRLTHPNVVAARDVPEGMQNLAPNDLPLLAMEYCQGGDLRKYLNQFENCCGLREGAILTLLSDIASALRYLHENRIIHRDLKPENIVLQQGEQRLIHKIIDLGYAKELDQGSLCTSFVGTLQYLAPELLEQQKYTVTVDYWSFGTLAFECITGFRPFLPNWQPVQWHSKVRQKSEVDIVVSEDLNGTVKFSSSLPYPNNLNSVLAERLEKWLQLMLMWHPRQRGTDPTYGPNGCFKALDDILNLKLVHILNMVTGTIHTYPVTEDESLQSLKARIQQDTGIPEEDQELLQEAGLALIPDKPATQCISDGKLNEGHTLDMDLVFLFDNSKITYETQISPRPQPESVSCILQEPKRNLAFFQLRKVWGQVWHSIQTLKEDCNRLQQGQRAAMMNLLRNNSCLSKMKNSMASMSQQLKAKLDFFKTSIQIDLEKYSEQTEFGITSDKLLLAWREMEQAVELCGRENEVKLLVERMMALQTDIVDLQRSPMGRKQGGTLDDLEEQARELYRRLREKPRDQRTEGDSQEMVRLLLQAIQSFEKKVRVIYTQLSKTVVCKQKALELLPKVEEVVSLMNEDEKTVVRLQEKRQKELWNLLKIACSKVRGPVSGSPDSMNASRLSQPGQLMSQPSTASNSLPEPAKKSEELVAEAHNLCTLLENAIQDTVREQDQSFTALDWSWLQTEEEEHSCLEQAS
T29 sequence (P54762 18-984): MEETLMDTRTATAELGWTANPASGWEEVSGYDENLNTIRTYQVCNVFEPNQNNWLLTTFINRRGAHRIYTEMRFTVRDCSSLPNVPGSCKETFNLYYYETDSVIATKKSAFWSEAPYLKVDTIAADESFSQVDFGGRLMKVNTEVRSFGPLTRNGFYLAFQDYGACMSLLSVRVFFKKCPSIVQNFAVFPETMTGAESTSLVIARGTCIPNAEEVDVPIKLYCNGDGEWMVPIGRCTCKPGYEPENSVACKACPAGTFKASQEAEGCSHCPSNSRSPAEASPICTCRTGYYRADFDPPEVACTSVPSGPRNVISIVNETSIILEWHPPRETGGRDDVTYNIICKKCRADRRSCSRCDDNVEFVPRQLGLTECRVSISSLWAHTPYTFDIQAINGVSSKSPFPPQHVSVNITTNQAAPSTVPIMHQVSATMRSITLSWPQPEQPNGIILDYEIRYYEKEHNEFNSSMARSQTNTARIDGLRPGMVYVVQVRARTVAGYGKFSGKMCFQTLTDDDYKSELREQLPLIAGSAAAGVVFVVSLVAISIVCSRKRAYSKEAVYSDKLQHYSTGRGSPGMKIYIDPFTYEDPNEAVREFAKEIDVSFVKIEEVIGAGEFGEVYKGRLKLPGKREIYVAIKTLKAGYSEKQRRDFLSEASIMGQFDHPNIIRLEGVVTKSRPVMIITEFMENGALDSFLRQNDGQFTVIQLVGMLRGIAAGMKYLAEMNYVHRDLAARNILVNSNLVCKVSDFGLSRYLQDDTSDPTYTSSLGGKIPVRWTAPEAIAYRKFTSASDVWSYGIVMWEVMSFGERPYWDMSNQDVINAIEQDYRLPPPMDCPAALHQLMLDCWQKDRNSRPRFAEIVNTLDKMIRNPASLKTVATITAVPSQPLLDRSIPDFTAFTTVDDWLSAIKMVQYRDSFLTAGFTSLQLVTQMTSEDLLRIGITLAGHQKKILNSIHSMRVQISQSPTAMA
T11 sequence (Q02750 whole entry): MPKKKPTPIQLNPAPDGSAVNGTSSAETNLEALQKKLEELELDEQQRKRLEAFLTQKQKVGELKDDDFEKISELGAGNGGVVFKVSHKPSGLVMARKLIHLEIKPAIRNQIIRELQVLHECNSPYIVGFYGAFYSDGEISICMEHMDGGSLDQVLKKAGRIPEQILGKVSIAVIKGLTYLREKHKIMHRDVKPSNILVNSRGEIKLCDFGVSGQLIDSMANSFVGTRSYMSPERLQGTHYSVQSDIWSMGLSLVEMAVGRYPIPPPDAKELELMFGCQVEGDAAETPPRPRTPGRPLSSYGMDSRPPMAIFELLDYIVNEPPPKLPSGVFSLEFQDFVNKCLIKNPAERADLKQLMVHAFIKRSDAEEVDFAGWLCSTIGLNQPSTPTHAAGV
T27 sequence (P36888 27-993): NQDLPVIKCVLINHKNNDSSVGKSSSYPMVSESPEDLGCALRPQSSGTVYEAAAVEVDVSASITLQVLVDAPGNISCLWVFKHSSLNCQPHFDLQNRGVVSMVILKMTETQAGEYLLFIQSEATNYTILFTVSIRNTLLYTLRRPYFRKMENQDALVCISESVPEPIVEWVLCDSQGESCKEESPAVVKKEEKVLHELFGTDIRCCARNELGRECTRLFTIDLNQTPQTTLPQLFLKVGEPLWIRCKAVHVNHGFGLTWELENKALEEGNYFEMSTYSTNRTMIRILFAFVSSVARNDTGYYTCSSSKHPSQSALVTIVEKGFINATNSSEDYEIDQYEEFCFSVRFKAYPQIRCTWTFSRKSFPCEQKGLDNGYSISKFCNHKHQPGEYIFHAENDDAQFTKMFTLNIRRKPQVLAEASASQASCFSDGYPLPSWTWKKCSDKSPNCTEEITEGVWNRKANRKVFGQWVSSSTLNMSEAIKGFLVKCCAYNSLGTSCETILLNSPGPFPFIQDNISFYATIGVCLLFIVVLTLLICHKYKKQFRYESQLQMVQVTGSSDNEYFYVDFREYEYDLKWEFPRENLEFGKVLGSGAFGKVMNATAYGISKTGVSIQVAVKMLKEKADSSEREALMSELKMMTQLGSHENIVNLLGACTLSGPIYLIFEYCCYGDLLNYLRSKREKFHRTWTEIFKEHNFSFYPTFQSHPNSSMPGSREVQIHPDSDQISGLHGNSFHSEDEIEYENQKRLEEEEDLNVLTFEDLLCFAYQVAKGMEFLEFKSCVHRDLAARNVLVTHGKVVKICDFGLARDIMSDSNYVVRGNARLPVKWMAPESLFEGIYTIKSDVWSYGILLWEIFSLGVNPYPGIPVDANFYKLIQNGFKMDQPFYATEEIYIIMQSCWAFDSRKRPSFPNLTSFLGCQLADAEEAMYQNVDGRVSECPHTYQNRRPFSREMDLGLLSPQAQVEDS
T19 sequence (Q96GD4 whole entry): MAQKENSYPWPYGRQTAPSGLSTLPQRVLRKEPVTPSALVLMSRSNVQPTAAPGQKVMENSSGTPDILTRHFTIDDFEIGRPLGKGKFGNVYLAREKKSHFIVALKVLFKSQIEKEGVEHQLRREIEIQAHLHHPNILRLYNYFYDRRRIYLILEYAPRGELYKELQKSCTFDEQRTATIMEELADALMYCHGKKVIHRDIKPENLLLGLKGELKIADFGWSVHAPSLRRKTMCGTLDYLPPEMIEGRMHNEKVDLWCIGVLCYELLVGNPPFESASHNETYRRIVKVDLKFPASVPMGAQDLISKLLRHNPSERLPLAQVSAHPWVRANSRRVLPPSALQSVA

Cc1ccccc1-n1c(C(C)Nc2nc(N)nc3nc[nH]c23)nc2cccc(C)c2c1=O (stereo not drawn) [CAL-130]
11%: [4]
100%: all other assays above
